Experimental data reported in patent US5045566A, “Novel imidate insecticides” (ICI Americas Inc., priority 1989, dated 1991).

Assays:
Type in all cases: in vivo
[1] = test system: Housefly [Musca domestica]; test: Housefly contact mortality in dishes (HF), 48 hours; conditions: μg of test compound per 25 female flies
How it was run: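 LC50 (μg compound per 25 female flies) derives from dosage-mortality curves of 48 h kill. Flies, females 1-2 days old, were held 25 per cage over a dish coated with dried acetone deposit, starting at 100 μg per cage and descending.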

[2] = test system: Black Bean Aphid [Aphis fabae (Scop.)]; test: Black bean aphid spray test on nasturtium (BBA), 48 hours; conditions: percent of test compound in sprayed solution
How it was run: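 LC50, given as percent test compound in the sprayed liquid, was calculated from dosage-mortality curves using concentrations from 0.05% downward. Sprays in 50:50 acetone-water went to runoff on ~5 cm nasturtiums carrying 25-50 aphids of mixed ages, one day after infestation. Deaths were counted 48 h later under greenhouse conditions.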

[3] = test system: Tobacco Budworm [Heliothis virescens (Fabricius)] eggs; test: Tobacco budworm eggs (TBW-E); conditions: percent in solution; 2-day old eggs
How it was run: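 LC50 values (percent test compound in the dip solution) were calculated from dosage-mortality curves. Egg patches, 2 days old, were dipped in acetone solutions at concentrations from 0.1% downward and held at 78° F on rearing medium until control larvae hatched and fed.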

[4] = test system: Cabbage Looper [Trichoplusia ni (Hubner)]; test: Cabbage looper leaf dip (CL), 3-5 days; conditions: percent in solution, second-instar larvae
How it was run: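 Leaf dip, squash cotyledons, 50-50 acetone-water, top dose 0.1% and lower. 5 second-instar larvae/dish, moist filter paper, high-humidity chamber. Mortality at 3-5 d; LC50 (% in solution) from dosage-mortality curves.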

[5] = test system: Aster Leafhopper [Macrosteles fascifrens (Stal)]; test: Aster leafhopper on dipped oat seedlings (LH), 48 hours; conditions: percent in solution, adults/nymphs
Experimental: The compounds in Tables 1 and 2 above were tested for insecticidal activity using the following testing procedures. LC50 values, based on the results of these tests and calculated according to dosage-mortality curves, are expressed in Table 3.
Aster Leafhopper [Macrosteles fascifrens (Stal)]
Oat seedlings (Avena sp) were grown in a commercial potting soil in cups. When the plants were approximately 10 cm tall they were thinned to three plants per cup and dipped for 2-3 seconds in 50-50 acetone-water solutions of the test compounds. When the plants had dried, a clear plastic tube was placed over them and the bottom end pressed into the cup. Ten aster leafhopper adults/nymphs were then placed in each tube and the tops of the tubes covered with white organdy cloth. Mortality counts were made after 48 hours. Test concentrations ranged from 0.05% down to that at which 50% mortality occurred. The LC50 values are expressed below in Table 3 under the heading "LH" in terms of the percent of the test compound in the solution.

[6] = test system: Maize weevil [Sitophilus zeamais (Motschulsky)]; test: Maize weevil on dipped corn seeds (MW), 48 hours; conditions: percent in solution, adult weevils
How it was run: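 LC50, given as percent of compound in dipping solution, comes from dosage-mortality curves over concentrations descending from 0.01%. Four corn seeds soaked 2-3 s in 50:50 acetone:water solution were dried and held with 10 adult weevils, about 25° C, mortality read after 48 h.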

Structure (SMILES)	LC50 HF [1] [µg]	LC50 BBA [2] [%]	LC50 TBW E (eggs) [3] [%]	LC50 CL [4] [%]	LC50 LH [5] [%]	LC50 MW [6] [%]
COc1c(Cl)cc(N=C(OCc2cccc(Oc3ccccc3)c2)C(C)C)cc1Cl [Compound 91]	37	0.001	> 0.01	0.002	0.003	–
CC(C)C(=Nc1cc(Cl)cc(Cl)c1)OCc1cccc(Oc2ccccc2)c1 [Compound 16]	20	0.0004	0.04	0.004	0.0005	–
CCOC(=O)c1cc(N=C(OCc2cccc(Oc3ccccc3)c2)C(C)C)ccc1Cl [Compound 102]	> 100	0.05	> 0.1	0.075	> 0.05	–
CCc1cccc(N=C(OCc2cccc(Oc3ccccc3)c2)C(C)(C)C)c1 [Compound 162]	> 100	> 0.05	> 0.1	0.035	> 0.05	–
COc1ccc(OC)c(N=C(OCc2cccc(Oc3ccccc3)c2)C(C)C)c1 [Compound 69]	> 100	> 0.05	> 0.1	0.09	> 0.05	–
Cc1c(Cl)cc(N=C(OCc2cccc(Oc3ccccc3)c2)C(C)C)cc1Cl [Compound 101]	81	0.002	> 0.1	0.0045	0.0008	–
CC(C)C(=Nc1cc(F)ccc1Cl)OCc1ccc(F)c(Oc2ccc(F)cc2)c1 [Compound 303]	> 100	–	> 0.1	0.0015	0.0005	–
CC(C)C(=Nc1ccc(C(C)C)cc1)OCc1cccc(Oc2ccc(F)cc2)c1 [Compound 228]	> 100	0.01	> 0.1	0.0025	> 0.05	–
CC(C)C(=Nc1ccc(I)cc1)OCc1cccc(Oc2ccccc2)c1 [Compound 137]	18	0.03	0.04	0.003	0.008	–
CCCC(=Nc1ccc2c(c1)OCO2)OCc1cccc(Oc2ccccc2)c1 [Compound 188]	12	–	> 0.1	0.002	> 0.05	–
CC(C)C(=Nc1ccc(C(F)(F)F)cc1)OCc1cccc(Oc2ccccc2)n1 [Compound 504]	< 100	0.0003	0.05	0.00025	–	0.01
CC(C)C(=Nc1ccc(I)c(Cl)c1)OCc1ccc(F)c(Oc2ccc(F)cc2)c1 [Compound 385]	< 100	> 0.05	> 0.1	> 0.1	–	> 0.01
CC(C)C(=Nc1ccc(F)c(Br)c1)OCc1cccc(Oc2ccc(Cl)cc2)c1 [Compound 398]	< 100	0.002	< 0.1	< 0.1	–	> 0.01
CCOc1ccc(N=C(OCc2ccc(F)c(Oc3ccccc3)c2)C(C)C)cc1F [Compound 439]	> 100	0.0003	> 0.1	0.00045	–	> 0.01
CCc1ccc(N=C(OCc2cccc(Oc3ccccc3)c2)C(C)(C)C)cc1 [Compound 163]	> 100	> 0.05	> 0.1	0.004	–	> 0.01
CC(C)C(=Nc1ccc(F)c(F)c1)OCc1cccc(Oc2ccc(Cl)cc2)n1 [Compound 559]	< 100	0.0035	0.017	0.00027	–	> 0.01

Structure (SMILES)	LC50 HF [1] [µg]	LC50 BBA [2] [%]	LC50 TBW E (eggs) [3] [%]	LC50 CL [4] [%]	LC50 LH [5] [%]	LC50 MW [6] [%]
CC(C)C(=Nc1ccc2c(c1)OCO2)OCc1cccc(Oc2ccc(F)cc2)n1 [Compound 465]	8	–	0.027	0.0017	0.0025	–
CCOc1ccc(N=C(OCc2cccc(Oc3ccc(F)cc3)c2)C(C)C)cc1Br [Compound 446]	> 100	0.001	< 0.1	0.0008	–	> 0.01
CC(C)C(=Nc1ccc(Cl)cc1)OCc1cccc(Oc2ccc(Cl)cc2)n1 [Compound 554]	> 100	0.003	0.04	0.00075	–	> 0.01
C=C(C)C(=Nc1ccc(F)c(Cl)c1)OCc1ccc(F)c(Oc2ccccc2)c1 [Compound 416]	< 100	0.0035	0.018	0.00027	–	> 0.01
Cc1cc(N=C(OCc2cccc(Oc3ccc(Cl)cc3)c2)C(C)C)ccc1F [Compound 397]	< 100	0.002	< 0.1	0.0019	–	> 0.01
CC(C)C(=Nc1cccc(Cl)c1)OCc1ccc(F)c(Oc2ccc(F)cc2)c1 [Compound 341]	4	0.0005	0.023	0.0005	–	> 0.01
CCc1ccccc1N=C(OCc1cccc(Oc2ccc(F)cc2)c1)C(C)C [Compound 411]	< 100	> 0.05	> 0.1	> 0.1	–	> 0.01
C=C(C)C(=Nc1ccc(C(F)(F)F)cc1)OCc1cccc(Oc2ccccc2)c1 [Compound 430]	< 100	0.0006	0.032	0.001	–	0.004
COc1ccc(N=C(OCc2ccc(F)c(Oc3ccc(Cl)cc3)c2)C(C)C)cc1 [Compound 412]	< 100	0.0032	> 0.1	> 0.1	–	> 0.01
CC(C)C(=Nc1cccc(C(F)(F)F)c1)OCc1ccnc(Oc2ccccc2)c1 [Compound 507]	93	0.05	> 0.1	0.002	–	> 0.01
CC(C)C(=Nc1ccc(S(C)(=O)=O)cc1)OCc1ccc(F)c(Oc2ccc(F)cc2)c1 [Compound 414]	< 100	> 0.05	> 0.1	0.0024	–	> 0.01
COc1ccc(N=C(OCc2ccc(F)c(Oc3ccc(F)cc3)c2)C(C)C)cc1Cl [Compound 408]	< 100	0.0005	0.02	0.0015	–	> 0.01
COc1ccc(N=C(OCc2ccc(F)c(Oc3ccccc3)c2)C(C)C)cc1Cl [Compound 409]	< 100	0.0005	0.025	0.0017	–	> 0.01
CC(C)C(=Nc1ccc(OCC(F)(F)F)c(Cl)c1)OCc1cccc(Oc2ccc(Cl)cc2)c1 [Compound 421]	> 100	> 0.05	< 0.1	0.002	–	> 0.01
CC(C)C(=Nc1cccc(Cl)c1)OCc1ccc(F)c(Oc2ccc(Cl)cc2)c1 [Compound 390]	< 100	0.0006	0.045	0.0021	–	> 0.01
CC(C)C(=Nc1ccc(OCC(F)(F)F)c(Cl)c1)OCc1cccc(Oc2ccccc2)c1 [Compound 425]	> 100	0.0035	> 0.1	0.00075	–	> 0.01
